Reference: patent publication US20120252721A1 (priority 2011, published 2012)
Where two headings read alike, the source gives them in different places.

Assays:
[1] = tested on: HCV genotype 1a H77 strain subgenomic luciferase replicon (H1a-luc); assay: Luciferase replicon assay, genotype 1a; format: cell-based; settings: Hepatitis C virus, read-out: EC50 1a
Outline: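 Huh-7 cells carrying H1a-luc subgenomic replicon (luciferase-neomycin phosphotransferase fusion), seeded at 1×10^4 cells/well, dosed 3 h later with ten 5-fold compound dilutions for 72 h at 37 °C. Replication read as luciferase luminescence; replicon-free Huh-7 cells as negative control. EC50 from dose-response curve fits.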

[2] = tested on: ZS11-luc WT (HCV genotype 1b replicon); assay: Luciferase replicon transient transfection assay, ZS11-luc WT; format: cell-based, hepatitis C virus; settings: for EC50: genotype 1b, ZS11-luc WT, Huh7.5 cells, 4 days; for Ratio: ZS11-luc (Table 1I)
Procedure: (§1) The luciferase replicon transient transfection assay measures the ability of a test compound to inhibit the replication of a transiently-transfected HCV luciferase-bearing wild-type or mutant replicon in cured human hepatoma cells (Huh7.5). The inhibition of HCV replication was measured by quantification of luciferase protein expression. This assay has been validated using a panel of genotype 1a and 1b replicons bearing mutations known to be associated with resistance to BMS-790052. Briefly, subconfluent Huh7.5 cells were electroporated with 10 μg of wild-type or mutant luciferase-bearing HCV replicon RNA. The cells were then seeded in 96-well opaque white plates at 3×10^4 cells/well in 150 μL/well and incubated for 4 hrs at 37° C./5% CO2. Ten 1:5 serial dilutions of each test compound were made in media (DMEM containing glucose, L-glutamine and sodium pyruvate, 10% fetal bovine serum, 100 IU/mL penicillin, 100 μg/mL streptomycin, 2 mM GlutaMAX, and 1×MEM non-essential amino acids (Mediatech, Inc. and Invitrogen Corp.)) at concentrations that were 4× higher than the final concentrations to be tested and 50 μL/well was added to the transfected cells. Untreated, mock-transfected cells served as a negative control of luciferase expression. The plates were incubated at 37° C./5% CO2 for 4 days whereupon the media was removed and 50 μL of ONE-glo luciferase substrate (Promega) was added to each well. The plates were agitated on a rotating platform at room temperature for 3 min and read in a Victor^3V microplate reader (Perkin-Elmer) using a 700 nm cut-off filter with a 1 sec read time. EC50 values were calculated from dose response curves from the resulting best-fit equations determined by Microsoft Excel and XLfit 4.1 software.

[3] = tested on: ZS11-luc replicon, NS3-R155K; assay: Luciferase replicon transient transfection assay, NS3-R155K; format: cell-based, hepatitis C virus; settings: for EC50: Hepatitis C virus
Procedure: as §1
(§2) To determine the replication capacity of each mutant relative to the wild-type parental replicon, transfected cells were plated on two plates and were not treated with compound. Luciferase activity was measured at time points of 4 hrs and 4 days after plating for each replicon. Replication capacity was calculated by dividing the day 4 CPS by the 4 hour CPS for each replicon and determining the percentage present for each mutant replicon relative to wild-type replicon values. The NS3, NS4B, and NS5B mutants were prepared and tested according to the methods described herein.

[4] = tested on: ZS11-luc replicon, NS3-D168V; assay: Luciferase replicon transient transfection assay, NS3-D168V; format: cell-based, hepatitis C virus; settings: for EC50: Hepatitis C virus
Procedure: as §1, §2

[5] = tested on: 1a-luc M28T (HCV genotype 1a replicon); assay: Luciferase replicon transient transfection assay, 1a-luc M28T; format: cell-based, hepatitis C virus; settings: for EC50: Hepatitis C virus, 96 h, Huh7.5 cells, 4 days
Procedure: as §1

[6] = tested on: 1a-luc L31F (HCV genotype 1a replicon); assay: Luciferase replicon transient transfection assay, 1a-luc L31F; format: cell-based, hepatitis C virus; settings: for EC50: Hepatitis C virus, 96 h, Huh7.5 cells, 4 days
Procedure: as §1

[7] = tested on: HCV genotype 1a replicon, NS4B E15G; assay: Luciferase replicon transient transfection assay, genotype 1a NS4B E15G; format: cell-based, hepatitis C virus; settings: for EC50: Hepatitis C virus, HCV region NS4B, mutation E15G; for Ratio: NS4B E15G
Procedure: as §1, §2

[8] = tested on: ZS11-luc P32L (HCV genotype 1b replicon); assay: Luciferase replicon transient transfection assay, ZS11-luc P32L; format: cell-based, hepatitis C virus; settings: for EC50: Hepatitis C virus, 96 h, Huh7.5 cells, 4 days
Procedure: as §1

[9] = tested on: 1a-luc Q30R (HCV genotype 1a replicon); assay: Luciferase replicon transient transfection assay, 1a-luc Q30R; format: cell-based, hepatitis C virus; settings: for EC50: Hepatitis C virus, 96 h, Huh7.5 cells, 4 days
Procedure: as §1

[10] = tested on: HCV genotype 1a replicon, NS5A K24E; assay: Luciferase replicon transient transfection assay, genotype 1a NS5A K24E; format: cell-based, hepatitis C virus; settings: for EC50: Hepatitis C virus, genotype 1a, HCV region NS5A, mutation K24E
Procedure: as §1

HCV genotype 5a = assay: Replicon assay, genotype 5a (method not described); format: cell-based; settings: Hepatitis C virus
[11] = tested on: ZS11-luc Y93N (HCV genotype 1b replicon); assay: Luciferase replicon transient transfection assay, ZS11-luc Y93N; format: cell-based, hepatitis C virus; settings: for EC50: Hepatitis C virus, 96 h, Huh7.5 cells, 4 days
Procedure: as §1

[12] = tested on: 1a-luc Q30K (HCV genotype 1a replicon); assay: Luciferase replicon transient transfection assay, 1a-luc Q30K; format: cell-based, hepatitis C virus; settings: for EC50: Hepatitis C virus, 96 h, Huh7.5 cells, 4 days
Procedure: as §1

[13] = tested on: HCV genotype 1a replicon, NS3 T260A; assay: Luciferase replicon transient transfection assay, genotype 1a NS3 T260A; format: cell-based, hepatitis C virus; settings: for EC50: Hepatitis C virus, genotype 1a, HCV region NS3, mutation T260A
Procedure: as §1, §2

[14] = Hepatitis C virus, Huh7.5, 96 h

Row | SMILES | EC50 [1] | EC50 [2, 14] | EC50 [3] | Ratio [3] | EC50 [4] | Ratio [4] | Ratio [5] | EC50 [5] | Ratio [6] | EC50 [6] | EC50 [7] | Ratio [7] | Ratio [8] | EC50 [8] | Ratio [9] | EC50 [9] | EC50 [10] | Ratio [10] | Ratio [2] | EC50 (HCV genotype 5a) | other results
1 | COC(=O)N[C@H](C(=O)N1CCC[C@H]1c1ncc(-c2ccc(-c3csc4c(-c5cnc([C@@H]6CCCN6C(=O)[C@@H](NC(=O)OC)C(C)C)[nH]5)csc34)cc2)[nH]1)C(C)C [Compound A15, [(S)-1-((S)-2-{4-[4-(6-{2-[(S)-1-((S)-2-methoxycarbonylamino-3-methyl-butyryl)-pyrrolidin-2-yl]-3H-imidazol-4-yl}-thieno[3,2-b]thiophen-3-yl)-phenyl]-1H-imidazol-2-yl}-pyrrolidine-1-carbonyl)-2-methyl-propyl]-carbamic acid methyl ester] | – | – | – | – | – | – | – | – | – | – | – | – | – | – | – | – | – | – | – | – | EC50 ([1]; genotype 1a): < 0.1 nM
2 | COC(=O)N[C@H](C(=O)N1CCC[C@H]1c1ncc(-c2ccc(-c3csc4c(-c5cnc([C@@H]6CCCN6C(=O)[C@H](NC(=O)OC(C)(C)C)c6ccccc6)[nH]5)csc34)cc2)[nH]1)C(C)C [Compound A111, [(S)-1-((S)-2-{4-[4-(6-{(S)-2-[1-((R)-2-tert-butoxycarbonylamino-2-phenyl-acetyl)-pyrrolidin-2-yl]-3H-imidazol-4-yl}-thieno[3,2-b]thiophen-3-yl)-phenyl]-1H-imidazol-2-yl}-pyrrolidine-1-carbonyl)-2-methyl-propyl]-carbamic acid methyl ester] | 0.1 to 1 nM | 0.002 nM | – | – | – | – | – | – | – | – | – | – | – | – | – | – | – | – | – | – | –
3 | COC(=O)N[C@H](C(=O)N1CCC[C@H]1c1nc2cc(-c3csc4c(-c5ccc(-c6cnc([C@@H]7CCCN7C(=O)[C@H](NC(=O)OC)c7ccccc7)[nH]6)cc5)csc34)ccc2[nH]1)C(C)C [Compound A169, [(S)-1-((S)-2-{6-[6-(4-{(S)-2-[1-((R)-2-methoxycarbonylamino-2-phenyl-acetyl)-pyrrolidin-2-yl]-3H-imidazol-4-yl}-phenyl)-thieno[3,2-b]thiophen-3-yl]-1H-benzoimidazol-2-yl}-pyrrolidine-1-carbonyl)-2-methyl-propyl]-carbamic acid methyl ester] | < 0.1 nM | 0.002 nM | 0.0017 nM | 1.01 | 0.0018 nM | 1.04 | 155 | 0.3 nM | 68 | 0.15 nM | 0.003 nM | 1.52 | 8 | 0.02 nM | 10 | 0.02 nM | 0.004 nM | 1.83 | 1 | < 0.1 nM | EC50 [2]: 0.0017 nM; Ratio [11]: 146; EC50 [11]: 0.4 nM; Ratio [12]: 310; EC50 [12]: 0.7 nM; EC50 [13]: 0.003 nM; Ratio [13]: 1.57
4 | COC(=O)N[C@H](C(=O)N1CCC[C@H]1c1ncc(-c2ccc(-c3csc4c(-c5ccc6[nH]c([C@@H]7CCCN7C(=O)[C@H](NC(=O)OC)c7ccccc7)nc6c5)csc34)cc2)[nH]1)C(C)C [Compound A172, [(S)-1-((S)-2-{5-[4-(6-{(S)-2-[1-((R)-2-Methoxycarbonylamino-2-phenyl-acetyl)-pyrrolidin-2-yl]-3H-benzoimidazol-5-yl}-thieno[3,2-b]thiophen-3-yl)-phenyl]-1H-imidazol-2-yl}-pyrrolidine-1-carbonyl)-2-methyl-propyl]-carbamic acid methyl ester] | < 0.1 nM | – | 0.0023 nM | 1.02 | 0.0024 nM | 1.04 | 174 | 0.7 nM | 67 | 0.3 nM | 0.006 nM | 1.68 | 6 | 0.03 nM | 10 | 0.04 nM | 0.006 nM | 1.64 | 1 | < 0.1 nM | Ratio [11]: 65; EC50 [11]: 0.3 nM; Ratio [12]: 317; EC50 [12]: 1 nM; EC50 [13]: 0.006 nM; Ratio [13]: 1.61
